The source of these data is publication PMC12368479, “Inhibition of the Clathrin Terminal Domain—Amphiphysin Protein–Protein Interaction. Probing the Pitstop 2 Aromatic Moiety” (Chemmedchem, 2025).

Like-named read-outs stand apart in the source and are kept apart here. Bounds are passed on as bounds.

Data set [1] deals with T1, clathrin heavy chain NTD (amino acids 1–364) – amphiphysin 1 B/C domain protein–protein interaction (NTD‐PPI) (Homo sapiens, UniProt Q00610).
T1 construct: GST‐tagged clathrin heavy chain NTD (amino acids 1–364); made in house
T1 sequence (Q00610 1-364): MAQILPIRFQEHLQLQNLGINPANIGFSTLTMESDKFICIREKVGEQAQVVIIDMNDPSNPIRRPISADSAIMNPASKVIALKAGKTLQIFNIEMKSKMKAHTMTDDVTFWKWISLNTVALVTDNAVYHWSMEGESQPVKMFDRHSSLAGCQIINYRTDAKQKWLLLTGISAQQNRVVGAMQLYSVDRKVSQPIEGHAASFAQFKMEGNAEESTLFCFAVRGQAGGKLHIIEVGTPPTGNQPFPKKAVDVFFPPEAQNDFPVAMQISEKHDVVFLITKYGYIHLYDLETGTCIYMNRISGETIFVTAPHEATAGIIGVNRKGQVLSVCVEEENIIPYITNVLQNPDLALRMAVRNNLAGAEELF
The arrangement: method as in PMID 21816279, PMID 27853797. The following applies: Figure 1, lead Pitstop 2 and earlier analogs; read-out: IC50 (clathrin NTD‐PPI inhibition); cited from earlier work.

Data set [2] deals with T1, clathrin heavy chain NTD (amino acids 1–364) – amphiphysin 1 B/C domain protein–protein interaction (NTD‐PPI). The experiment in a line: ELISA-based clathrin inhibitor binding assay (NTD-PPI). A digest of the protocol:
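Binding is given relative to DMSO control, measured colorimetrically (HRP anti-GST, TMB) after compounds and GST-tagged clathrin heavy-chain NTD (1–364) were co-incubated 1 h at room temperature on immobilised His6-amphiphysin 1 B/C domain (250–578), in HEPES pH 7.4 buffer with 50 mM NaCl.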

For data set [3], the target named is T2, full length human Dynamin I (Homo sapiens, UniProt Q05193).
T2 construct: full length human Dynamin I expressed in Sf21 insect cells; made in house; host or cells: Sf21 insect cells
T2 sequence (Q05193 1-864): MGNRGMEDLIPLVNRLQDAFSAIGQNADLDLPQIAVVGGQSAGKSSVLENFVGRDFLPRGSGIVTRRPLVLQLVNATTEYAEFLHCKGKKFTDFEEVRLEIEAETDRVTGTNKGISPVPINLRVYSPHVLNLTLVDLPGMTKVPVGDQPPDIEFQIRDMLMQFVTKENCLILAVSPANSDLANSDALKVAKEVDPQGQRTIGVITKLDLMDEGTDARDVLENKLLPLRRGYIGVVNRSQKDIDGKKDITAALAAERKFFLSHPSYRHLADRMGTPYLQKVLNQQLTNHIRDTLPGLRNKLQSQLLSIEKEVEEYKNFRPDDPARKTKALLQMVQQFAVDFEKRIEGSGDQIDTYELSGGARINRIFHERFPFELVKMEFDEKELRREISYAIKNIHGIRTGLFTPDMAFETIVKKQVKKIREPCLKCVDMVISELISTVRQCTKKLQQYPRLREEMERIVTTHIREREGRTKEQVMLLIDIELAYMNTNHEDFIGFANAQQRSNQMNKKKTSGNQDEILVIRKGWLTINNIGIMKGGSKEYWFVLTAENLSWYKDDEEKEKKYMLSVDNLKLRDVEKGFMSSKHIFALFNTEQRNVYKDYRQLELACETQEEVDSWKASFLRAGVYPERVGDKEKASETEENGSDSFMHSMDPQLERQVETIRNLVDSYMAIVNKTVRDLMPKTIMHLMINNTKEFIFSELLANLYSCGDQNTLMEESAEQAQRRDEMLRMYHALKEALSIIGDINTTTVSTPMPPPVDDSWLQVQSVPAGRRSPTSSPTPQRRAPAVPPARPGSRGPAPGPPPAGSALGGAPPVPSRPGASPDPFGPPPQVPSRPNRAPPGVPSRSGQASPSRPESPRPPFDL
The experiment in a line: Dynamin GTPase activity, Malachite Green phosphate detection assay. Format: biochemical. Here is the method: Dynamin GTPase activity was determined in vitro using the Malachite Green phosphate detection absorbance‐based assay within a 96‐well plate format as described previously. The enzyme source was full length human Dynamin I expressed in Sf21 insect cells and affinity‐purified on GST‐Amph2‐SH3 (rat Amphiphysin 2 (494–588)).^[ [56] ^]

In data set [4] the test system is transferrin uptake (CME) in U2OS osteosarcoma cells. In words: Clathrin-mediated endocytosis assay: transferrin (Tfn) uptake in U2OS cells. The format is cell-based. Particulars: Homo sapiens, U2OS.
The nature of data set [5]: Qualitative solubility in solvents (compound data sheets, Supporting Information). Format: physicochemical. The following applies: solvents in which the compound dissolves.
[6] abbreviates: Table 1, library 1, ELISA, average of duplicate measurements (n=2), read-out: NTD‐PPI IC50.
Setting [7] is: Table 5, ELISA, read-out: NTD‐PPI IC50.
Where [8] appears, read: Table 1, library 1, n = 1 unless noted (19: n = 2), '–' = not active at 150 μM, read-out: Dyn 1 IC50.
Where [9] appears, read: Table 5, dynamin GTPase, n = 1 or n = 2 as footnoted, NA = not active at 100 μM, read-out: Dynamin 1 IC50.
The mark [10] stands for this setting: Table 5, inhibition of transferrin‐red uptake in U2OS cells, '–'/NA = not active at 100 μM.
Where [11] appears, read: Table 4, library 4, ELISA, average of duplicate measurements (n = 2), read-out: NTD‐PPI IC50.
[12] abbreviates: Table 4, library 4, n = 1 or n = 2 as footnoted, '–' = not active at 100 μM, read-out: Dynamin 1 IC50.

As to `O=C1N=C(NS(=O)(=O)c2cccc3ccccc23)S/C1=C\c1ccc(Br)cc1` [Pitstop 2, (Z)‐N‐(5‐(4‐bromenzylidene)‐4‐oxo‐4,5‐dihydrothiazol‐2‐yl)naphthalene‐1‐sulfonamide], the IC50 in data set [1] is 1.9 µM.

As to `O=C1N=C(NS(=O)(=O)c2cccc(Cl)c2)S/C1=C\c1ccc(Br)cc1` [compound 2], in data set [1], the IC50 is 5.1 µM.

In the case of `O=C1N=C(NS(=O)(=O)c2cccc3ccccc23)S/C1=C\c1cccc(O)c1O` [compound 3], the IC50 in data set [1] was 3.5 µM.

Consider `O=C1N=C(NS(=O)(=O)c2cccc3ccccc23)S/C1=C\c1ccc(O)cc1` [compound 6, (Z)‐N‐(5‐(4‐hydroxybenzylidene)‐4‐oxo‐4,5‐dihydrothiazol‐2‐yl)naphthalene‐1‐sulfonamide], for which the IC50 in data set [2] (setting [6]) was 5.6 µM; in data set [2] (setting [7]), 5.6 µM; in data set [2] (read-out: NTD‐PPI IC50 (ELISA)) it was 2.7 µM; in data set [3] (setting [8]), > 150 µM; in data set [3] (setting [9]), > 100 µM; in data set [4] (setting [10]), 46.7 ± 13.1 µM. Moreover, in data set [5], the Solubility entry was “DMSO, slightly soluble in ethanol, acetone, methanol and ethyl acetate”.

`O=C1N=C(NS(=O)(=O)c2cccc3ccccc23)S/C1=C\c1cccc([N+](=O)[O-])c1` [compound 14, (Z)‐N‐(5‐(3‐nitrobenzylidene)‐4‐oxo‐4,5‐dihydrothiazol‐2‐yl)naphthalene‐1‐sulfonamide]: the IC50 is > 150 µM in data set [3] (setting [8]), > 100 µM in data set [3] (setting [9]) and 34.4 ± 13.7 µM in data set [4] (setting [10]). The Solubility entry in data set [5] is “DMSO, slightly soluble in acetone, ethanol and methanol”.

For the compound `O=C1N=C(NS(=O)(=O)c2cccc3ccccc23)S/C1=C\c1ccccc1[N+](=O)[O-]` [compound 15, (Z)‐N‐(5‐(2‐nitrobenzylidene)‐4‐oxo‐4,5‐dihydrothiazol‐2‐yl)naphthalene‐1‐sulfonamide], the “fold potency reduction (NTD‐PPI)” value in data set [2] (ELISA, comparator not named (lead Pitstop 2 series)) is > 100 fold. Also, the IC50 in data set [2] (setting [6]) is 153 µM; in data set [2] (setting [7]), 153 µM; in data set [3] (setting [8]), 42.2 µM; in data set [3] (setting [9]) it was ~42.4 µM; in data set [4] (setting [10]), 46.3 ± 13.7 µM. The Solubility entry in data set [5] was “DMSO, slightly soluble in ethyl acetate, acetone, ethanol and methanol”.

As for `O=C1COc2ccc(/C=C3\SC(NS(=O)(=O)c4cccc5ccccc45)=NC3=O)cc2N1` [compound 52, (Z)‐N‐(4‐oxo‐5‐((3‐oxo‐3,4‐dihydro‐2H‐benzo[b][1,4]oxazin‐6‐yl)methylene)‐4,5‐dihydrothiazol‐2‐yl)naphthalene‐1‐sulfonamide], the IC50 is 3.33 µM in data set [2] (setting [11]); 3.33 µM in data set [2] (setting [7]); < 5 µM in data set [2] (read-out: NTD‐PPI IC50 (ELISA)); ~54.1 µM in data set [3] (setting [12]); ~54.1 µM in data set [3] (setting [9]); > 100 µM in data set [4] (setting [10]). Moreover, in data set [4] (U2OS cells), the IC50 was > 50 µM. For the same compound, in data set [5], the Solubility entry was “DM SO, slig htly soluble in acetone, ethanol an d m ethanol”.

For the compound `O=C1N=C(NS(=O)(=O)c2cccc3ccccc23)S/C1=C\c1ccc2c(c1)CCO2` [compound 57, (Z)‐N‐(5‐((2,3‐dihydrobenzofuran‐5‐yl)methylene)‐4‐oxo‐4,5‐dihydrothiazol‐2‐yl)naphthalene‐1‐sulfonamide], the IC50 in data set [2] (setting [11]) was 3.27 µM; in data set [2] (read-out: NTD‐PPI IC50 (ELISA)), < 5 µM; in data set [3] (setting [12]), > 100 µM; in data set [3] (setting [9]), > 100 µM; in data set [4] (setting [10]), 58.1 ± 12.6 µM; in data set [4] (U2OS cells), > 50 µM. Moreover, the Solubility entry in data set [5] was “DM SO, slig htly soluble in ethyl acetate, aceton e, ethanol and methanol”.
